The record followed here is ChEMBL document CHEMBL1137068, “Design, synthesis and evaluation of bicyclic benzamides as novel 5-HT1F receptor agonists” (Bioorg Med Chem Lett, 2004).

Some results are limits rather than exact numbers.

T3 sequence (P28222 whole entry): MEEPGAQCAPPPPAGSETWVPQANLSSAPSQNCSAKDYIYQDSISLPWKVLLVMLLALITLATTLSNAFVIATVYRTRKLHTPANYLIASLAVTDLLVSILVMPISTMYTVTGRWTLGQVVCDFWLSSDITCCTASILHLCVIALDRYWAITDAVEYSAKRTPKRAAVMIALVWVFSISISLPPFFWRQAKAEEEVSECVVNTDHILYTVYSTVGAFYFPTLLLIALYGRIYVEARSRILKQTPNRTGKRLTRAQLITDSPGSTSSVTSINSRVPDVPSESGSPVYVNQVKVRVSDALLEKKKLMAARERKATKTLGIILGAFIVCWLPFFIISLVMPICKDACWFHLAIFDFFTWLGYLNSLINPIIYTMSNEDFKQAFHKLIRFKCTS

The target in one assay is T1, 5-hydroxytryptamine receptor 1D (Homo sapiens, UniProt P28221). Description: In vitro binding affinity for human 5-hydroxytryptamine 1D receptor.
T1 sequence (P28221 whole entry): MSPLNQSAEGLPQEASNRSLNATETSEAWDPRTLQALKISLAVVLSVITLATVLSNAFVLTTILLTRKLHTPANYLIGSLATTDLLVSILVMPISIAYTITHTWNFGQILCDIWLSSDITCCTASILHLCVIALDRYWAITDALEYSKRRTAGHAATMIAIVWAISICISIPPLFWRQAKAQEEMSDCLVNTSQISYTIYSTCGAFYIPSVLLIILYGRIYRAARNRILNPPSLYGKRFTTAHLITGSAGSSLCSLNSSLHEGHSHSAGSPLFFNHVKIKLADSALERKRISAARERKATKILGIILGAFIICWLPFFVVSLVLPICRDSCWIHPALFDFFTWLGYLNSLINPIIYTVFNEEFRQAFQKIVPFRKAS
Details: not given
One may read the Ki as a dissociation constant, usually derived from enzyme kinetics or from competition with a known ligand. High values mean weaker binding, low ones tighter binding. Turning to `CN1CCC(N2CCc3ccc(NC(=O)c4ccc(F)cc4)cc32)CC1`, the affinity, expressed as Ki, was 210 nM. In other words, the sub-micromolar range.

Consider `CN1CCC(N2CCOc3ccc(NC(=O)c4ccc(F)cc4)cc32)CC1`, for which the Ki was 2300 nM.

The compound `CN1CCC(C2CNc3ccc(NC(=O)c4ccc(F)cc4)cc32)CC1` (stereo in doubt; 3) [listing 1 of 2 here] came in with a Ki of 2300 nM.

In turn, `CN1CCC(n2ccc3ccc(NC(=O)c4ccc(F)cc4)cc32)CC1` had a Ki of 140 nM. Against the preceding compound, the Ki is about 16-fold lower.

`CN1CCC(c2n[nH]c3ccc(NC(=O)c4ccc(F)cc4)cc23)CC1`: the affinity corresponds to a Ki of 3100 nM.

In the next assay the target is T2, 5-hydroxytryptamine receptor 1F (Homo sapiens, UniProt P30939).
T2 sequence (P30939 whole entry): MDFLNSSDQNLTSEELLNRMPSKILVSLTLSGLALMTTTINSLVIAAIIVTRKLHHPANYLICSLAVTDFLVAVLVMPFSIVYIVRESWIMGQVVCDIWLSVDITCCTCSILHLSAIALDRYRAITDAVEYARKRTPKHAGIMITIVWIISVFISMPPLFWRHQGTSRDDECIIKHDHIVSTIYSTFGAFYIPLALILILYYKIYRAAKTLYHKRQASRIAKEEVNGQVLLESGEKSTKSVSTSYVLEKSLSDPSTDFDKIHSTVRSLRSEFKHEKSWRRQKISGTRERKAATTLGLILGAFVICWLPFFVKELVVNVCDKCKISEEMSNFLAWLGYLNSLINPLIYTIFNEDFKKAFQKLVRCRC
Description: In vitro binding affinity for human 5-hydroxytryptamine 1F receptor.
Details: not given
On to `CN1CCC(N2CCc3ccc(NC(=O)c4ccc(F)cc4)cc32)CC1`, for which the Ki came out at 4.8 nM. This lies in the single-digit nanomolar range.

`CN1CCC(c2noc3ccc(NC(=O)c4ccc(F)cc4)cc23)CC1` gave a Ki of 17 nM.

`CN1CCC(C2CNc3ccc(NC(=O)c4ccc(F)cc4)cc32)CC1` (stereo in doubt; form 1) [listing 1 of 2 here] showed a Ki of 8.6 nM.

Compound `CN1CCC(N2CCOc3ccc(NC(=O)c4ccc(F)cc4)cc32)CC1` yielded a Ki of 520 nM.

For the compound `CN1CCC(N2CNc3ccc(NC(=O)c4ccc(F)cc4Cl)cc32)CC1`, affinity was put at a Ki of 13 nM.

`CN1CCC(C2CNc3ccc(NC(=O)c4ccc(F)cc4)cc32)CC1` (stereo in doubt; 3) [listing 1 of 2 here]: the affinity corresponds to a Ki of 9 nM.

In the case of `CN1CCC(N2CNc3ccc(NC(=O)c4c(F)cc(F)cc4F)cc32)CC1`, the affinity, expressed as Ki, was 17 nM.

For the compound `CN1CCC(n2ccc3ccc(NC(=O)c4ccc(F)cc4)cc32)CC1`, the Ki is 2.2 nM. Against the preceding compound, the Ki is about 7.7-fold lower.

Take `CN1CCC(n2ncc3ccc(NC(=O)c4ccc(F)cc4)cc32)CC1`: the Ki came to 4.1 nM.

`CN1CCC(c2noc3ccc(NC(=O)c4ccc(F)cc4Cl)cc23)CC1` displayed a Ki of 3.6 nM.

For `CN1CCC(c2noc3ccc(NC(=O)c4ccc(F)cc4F)cc23)CC1`, the affinity corresponds to a Ki of 12 nM.

Regarding `CN1CCC(C2CNc3ccc(NC(=O)c4ccc(F)cc4)cc32)CC1` (stereo in doubt; form 2) [listing 1 of 2 here], the Ki was 9.6 nM.

In the case of `CN1CCC(c2n[nH]c3ccc(NC(=O)c4ccc(F)cc4)cc23)CC1`, the Ki was found to be 3.9 nM.

The next assay addresses T2, 5-hydroxytryptamine receptor 1F. Description: Stimulation of [35S]GTP-gamma-S, binding to cloned human 5-hydroxytryptamine 1F receptor expressed in Mouse LM(tk-) cells. The format is functional, cell-based.
Details: not given
(GTPγS resists hydrolysis and so accumulates on activated G proteins.)
As usually defined, the EC50 is the concentration at which the effect is half-maximal. Low readings indicate an effect from little substance, high ones a need for much substance. `CN1CCC(N2CNc3ccc(NC(=O)c4ccc(F)cc4Cl)cc32)CC1`: the EC50 came out at 63 nM.

For `CN1CCC(N2CNc3ccc(NC(=O)c4c(F)cc(F)cc4F)cc32)CC1`, the EC50 came to 50 nM.

Compound `CN1CCC(c2noc3ccc(NC(=O)c4ccc(F)cc4Cl)cc23)CC1` returned an EC50 of 140 nM.

In the case of `CN1CCC(c2noc3ccc(NC(=O)c4ccc(F)cc4F)cc23)CC1`, it took 470 nM to reach a half-maximal effect (EC50).

Another assay addresses T3, 5-hydroxytryptamine receptor 1B (Homo sapiens, UniProt P28222). Description: Inhibitory activity against human 5-hydroxytryptamine 1B receptor. The conditions noted are these: concentration not given here.
By inhibition is commonly meant how much of the control response was suppressed. In turn, `CN1CCC(C2CNc3ccc(NC(=O)c4ccc(F)cc4)cc32)CC1` (stereo in doubt; 3) [listing 2 of 2 here] showed an inhibition of less than 50%.

`CN1CCC(C2CNc3ccc(NC(=O)c4ccc(F)cc4)cc32)CC1` (stereo in doubt; form 1) [listing 2 of 2 here] showed an inhibition of less than 50%.

On to `CN1CCC(N2CCOc3ccc(NC(=O)c4ccc(F)cc4)cc32)CC1`, for which the inhibition is less than 50%.

`CN1CCC(C2CNc3ccc(NC(=O)c4ccc(F)cc4)cc32)CC1` (stereo in doubt; form 2) [listing 2 of 2 here] displayed an inhibition of less than 50%.

In a further assay the target is T1, 5-hydroxytryptamine receptor 1D. Description: Inhibitory activity against human 5-hydroxytryptamine 1D receptor. The note with it: concentration not given here.
The compound `CN1CCC(n2ncc3ccc(NC(=O)c4ccc(F)cc4)cc32)CC1` had an inhibition of less than 50%.

Another assay has the same target. Description: Inhibitory activity against 5-hydroxytryptamine 1D receptor at 10 uM.
Details: not given
`CN1CCC(c2noc3ccc(NC(=O)c4ccc(F)cc4)cc23)CC1` returned an inhibition of less than 50%.

Another assay addresses T4, 5-hydroxytryptamine receptor 1F (Homo sapiens) (UniProt P30939).
T4 sequence (whole entry): T2 sequence (P30939 whole entry)
Description: Maximum stimulation of [35S]GTP-gamma-S, binding to human 5-hydroxytryptamine 1F receptor expressed in Mouse LM(tk-) cells relative to maximum effect of 5-HT. The format is functional, cell-based.
Details: not given
One may read the Emax as the maximal effect, on the per cent scale that the assay sets. `CN1CCC(N2CNc3ccc(NC(=O)c4ccc(F)cc4Cl)cc32)CC1` returned a maximal effect (Emax) of 98%.

Compound `CN1CCC(N2CNc3ccc(NC(=O)c4c(F)cc(F)cc4F)cc32)CC1` had an Emax of 95%.

Compound `CN1CCC(c2noc3ccc(NC(=O)c4ccc(F)cc4Cl)cc23)CC1` yielded an Emax of 71%.

`CN1CCC(c2noc3ccc(NC(=O)c4ccc(F)cc4F)cc23)CC1` returned an Emax of 73%.

The species entered for another assay is Homo sapiens. Description: Ratio of binding affinity for 5-hydroxytryptamine 1D receptor to that of 5-hydroxytryptamine 1F receptor.
Details: not given
In the case of `CN1CCC(C2CNc3ccc(NC(=O)c4ccc(F)cc4)cc32)CC1` (stereo in doubt; 3) [listing 2 of 2 here], the Selectivity ratio was found to be 250.

Turning to `CN1CCC(N2CNc3ccc(NC(=O)c4ccc(F)cc4Cl)cc32)CC1`, the Selectivity ratio was determined as 80.

`CN1CCC(N2CNc3ccc(NC(=O)c4c(F)cc(F)cc4F)cc32)CC1`: the Selectivity ratio turned out to be 120.

The species entered for another assay is Homo sapiens. Description: Ratio of binding affinity for 5-hydroxytryptamine 1A receptor to that of 5-hydroxytryptamine 1F receptor.
Details: not given
Turning to `CN1CCC(C2CNc3ccc(NC(=O)c4ccc(F)cc4)cc32)CC1` (stereo in doubt; 3) [listing 2 of 2 here], the Selectivity ratio is 30.

Take `CN1CCC(c2noc3ccc(NC(=O)c4ccc(F)cc4)cc23)CC1`: the Selectivity ratio amounted to 10.

On to `CN1CCC(N2CNc3ccc(NC(=O)c4ccc(F)cc4Cl)cc32)CC1`, for which the Selectivity ratio is 70.

On to `CN1CCC(N2CNc3ccc(NC(=O)c4c(F)cc(F)cc4F)cc32)CC1`, for which the Selectivity ratio stood at 50.

Consider `CN1CCC(c2noc3ccc(NC(=O)c4ccc(F)cc4Cl)cc23)CC1`, for which the Selectivity ratio was found to be 30.

Turning to `CN1CCC(c2noc3ccc(NC(=O)c4ccc(F)cc4F)cc23)CC1`, the Selectivity ratio was 10.

A further assay has as its target T3, 5-hydroxytryptamine receptor 1B. Description: In vitro binding affinity for human 5-hydroxytryptamine 1B receptor.
Details: not given
`CN1CCC(N2CCc3ccc(NC(=O)c4ccc(F)cc4)cc32)CC1` returned a Ki of 440 nM.

Regarding `CN1CCC(n2ccc3ccc(NC(=O)c4ccc(F)cc4)cc32)CC1`, the Ki stood at 260 nM.

In the case of `CN1CCC(n2ncc3ccc(NC(=O)c4ccc(F)cc4)cc32)CC1`, the Ki worked out at 2400 nM.

The compound `CN1CCC(c2n[nH]c3ccc(NC(=O)c4ccc(F)cc4)cc23)CC1` had a Ki of 2300 nM.

For another assay the target is unchanged. Description: Inhibitory activity against 5-hydroxytryptamine 1B receptor at 10 uM.
Details: not given
Consider `CN1CCC(c2noc3ccc(NC(=O)c4ccc(F)cc4)cc23)CC1`, for which the inhibition is less than 50%.

A further assay concerns the target T5, 5-hydroxytryptamine receptor 1A (Homo sapiens, UniProt P08908).
T5 sequence (P08908 whole entry): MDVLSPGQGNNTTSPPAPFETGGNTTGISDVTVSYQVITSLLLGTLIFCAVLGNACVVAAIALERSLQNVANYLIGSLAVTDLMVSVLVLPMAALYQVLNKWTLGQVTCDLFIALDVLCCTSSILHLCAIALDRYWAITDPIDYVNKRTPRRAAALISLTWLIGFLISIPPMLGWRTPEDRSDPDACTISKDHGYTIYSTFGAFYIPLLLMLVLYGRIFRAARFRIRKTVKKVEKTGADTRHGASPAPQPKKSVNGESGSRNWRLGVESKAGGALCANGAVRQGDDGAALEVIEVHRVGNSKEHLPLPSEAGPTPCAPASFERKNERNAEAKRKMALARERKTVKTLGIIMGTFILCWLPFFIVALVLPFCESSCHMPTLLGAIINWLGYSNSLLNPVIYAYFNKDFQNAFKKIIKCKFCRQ
Description: In vitro binding affinity for human 5-hydroxytryptamine 1A receptor.
Details: not given
With `CN1CCC(N2CCc3ccc(NC(=O)c4ccc(F)cc4)cc32)CC1`, the Ki was found to be 12 nM.

Take `CN1CCC(c2noc3ccc(NC(=O)c4ccc(F)cc4)cc23)CC1`: the affinity corresponds to a Ki of 160 nM. Compared with the last compound, the Ki is about 13-fold higher.

`CN1CCC(C2CNc3ccc(NC(=O)c4ccc(F)cc4)cc32)CC1` (stereo in doubt; form 1) [listing 1 of 2 here] displayed a Ki of 250 nM.

Take `CN1CCC(N2CCOc3ccc(NC(=O)c4ccc(F)cc4)cc32)CC1`: the Ki came to 860 nM. This Ki lies about 3.4-fold higher than the previous one.

`CN1CCC(C2CNc3ccc(NC(=O)c4ccc(F)cc4)cc32)CC1` (stereo in doubt; 3) [listing 1 of 2 here] returned a Ki of 240 nM.

`CN1CCC(n2ccc3ccc(NC(=O)c4ccc(F)cc4)cc32)CC1` gave a Ki of 11 nM. This Ki is about 22-fold lower than that of the compound before.

As to `CN1CCC(n2ncc3ccc(NC(=O)c4ccc(F)cc4)cc32)CC1`, the affinity, expressed as Ki, was 310 nM.

`CN1CCC(C2CNc3ccc(NC(=O)c4ccc(F)cc4)cc32)CC1` (stereo in doubt; form 2) [listing 1 of 2 here] had a Ki of 250 nM.

As for `CN1CCC(c2n[nH]c3ccc(NC(=O)c4ccc(F)cc4)cc23)CC1`, the affinity, expressed as Ki, was 870 nM.
